Blank lines part the entries; values can stand above or below the compound they belong to.
Legend:
NF-κB activation [1] = test: NF-κB reporter assay (fluc/β-gal) in alveolar macrophages; type: cell-based, mouse; conditions: 1 μg/mL LPS; native OuJ AMs and AMs from chimeric strain P-M+; FIG. 4A
Procedure: FIG. 4A is a bar graph of NF-κB activation (as measured by firefly luciferase (fluc)/β-galactosidase (β-gal) activity) in alveolar macrophages (AMs) from chimeric mice twelve weeks following bone marrow transplant. The AMs were retrieved by bronchoalveolar lavage (BAL) and infected with Ad.NFκBLuc and Ad.CMV-LacZ, then incubated with either phosphate buffered saline (PBS; open bars) or 1 μg/mL lipopolysaccharide (LPS, darkly shaded bars). The observed firefly luciferase/β-galactosidase activity indicated complete replacement of recipient marrow from either chimeric HeJ strain (P+M−) or chimeric OuJ strain (P−M+). P=parenchymal cells, M=marrow-derived cells, +=intact TLR4 (OuJ), −=non-functional TLR4 (HeJ). AMs retrieved from non-irradiated HeJ and OuJ mice served as controls. n=4 experiments/group, p<0.0001.
AMs from HeJ and OuJ mice were harvested by BAL 120 days after BMT. The trachea was cannulated with a tailored 18 gauge catheter (Becton Dickinson, Sandy, Utah, United States of America). BAL was performed by slow tracheal delivery of 4 aliquots (35 μL×body weight in grams) of pre-warmed, sterile, endotoxin-, calcium-, and magnesium-free PBS with 0.2 mM EGTA. Lavage fluid was withdrawn by gentle suction, pooled for each mouse, and centrifuged at 250 g for 5 minutes. […]

OuJ mice = test: Murine lung ischemia-reperfusion injury, edema by wet to dry weight ratio (W/D), OuJ mice; type: in vivo, mouse; design: dose or concentration left out as unconfirmed; conditions: intravenously over 30 minutes (200 μL of saline) starting 60 minutes before left hilar clamping, FIG. 5A
Procedure: (§1) Mice were anesthetized with ketamine (0.1 mg/gm body weight) and xylazine (0.01 mg/gm) interperitoneally, followed by one-third of the initial dose hourly. Tracheotomy allowed mechanical ventilation (with a tidal volume of 0.4 mL, respiratory rate 120/min, I/E 0.4, PEEP 3 cm H2O, FiO2, 1.0) using a Columbus Instruments Ventilator CIV-101 (Columbus Instruments, Columbus, Ohio, United States of America). The right jugular vein was cannulated for infusion of albumin 2.5% in 0.9% saline, 450 μL/hour by syringe pump (Medfusion 2010i; Medex, Carlsbad, California, United States of America) to maintain hydration. Rectal temperature was monitored and maintained with a heating pad. The left pulmonary hilum was occluded for 1 hour with a microvascular clamp through a left thoracotomy. Reperfusion began with removal of the clamp. Animals were sacrificed at intervals ranging from 15 minutes to 3 hours by cardiectomy, and both lungs were excised. The apical portion of each lung was excised and immediately weighed, then desiccated in a 60° C. oven for 48 hours and re-weighed to determine wet to dry weight ratio (W/D). Remaining lung tissue was flash frozen in liquid nitrogen and stored at −80° C. Lungs excised immediately after sacrifice served as controls.

NF-κB activation [2] = test: NF-κB reporter assay (fluc/β-gal) in HMVECs stimulated with LPS or TNF; type: cell-based, human; conditions: FIG. 5B
Procedure: FIG. 5B is a bar graph showing the in vitro inhibition of NF-κB activation (based on firefly luciferase (fluc)/β-galactosidase (β-gal) activity) effected by 0.1, 1, 10, and 100 μg concentrations (i.e., Inhib 0.1, Inhib 1, Inhib 10, Inhib 100, respectively) of CRX-526. Fluc/β-gal was measured following stimulation of CRX-526-treated human pulmonary microvascular endothelial cells (HMVECs) with phosphate buffered saline (PBS) only (open bars), 10 ng/mL lipopolysaccharide (LPS) (spotted bars), 5 ng/mL LPS (striped bars), or 0.25 ng/mL tumor necrosis factor (TNF, darkly shaded bars). HMVECs that had not been treated with CRX-526 were used as a control. n=4/group, *p<0.05 compared to other values at same time point by ANOVA.
(§2) Recombinant, first generation E1, E3-deleted adenovirus serotype 5 vectors were prepared (see Sanlioglu et al., J. Biol. Chem., 276, 30188-30198 (2001)) and HMVECs and AMs were transfected as previously described for epithelial cells. See Wu et al., Respir. Res., 6, 26 (2005).

[3] = test system: NF-κB activation mediated through stimulation by Toll-like receptor 2 (TLR2) ligands; test: NF-κB reporter assay (fluc/β-gal) in HMVECs stimulated with TLR2 ligands; type: cell-based, human; conditions: transfected HMVECs pretreated 1 hour; Pam(3)Cys 25 μg/mL or LTA 1 μg/mL for 8 hours; FIG. 8
Excerpt: FIG. 8 is a bar graph showing the effects of CRX-526 on NF-κB activation mediated through stimulation by Toll-like receptor 2 (TLR2) ligands. Human pulmonary microvascular endothelial cells (HMVECs) were transfected with recombinant first-generation E1, E3-deleted Ad.NF-κB-luciferase and consituitive β-galactosidase vectors so that when NF-κB is activated, the ratio of firefly luciferase (fluc)/β-galactosidase (β-gal) increases. Forty eight hours after transfection, the HMVECs were pretreated for 1 hour with various concentrations of CRX-526 (as shown on the x-axis) and exposed to TLR2 ligands Pam(3)Cys (25 μg/mL, darkly shaded bars) or lipoteichoic acid (LTA; 1 μg/mL, open bars) for 8 hours. Luciferase activity is normalized to β-galactosidase to control for infection efficiency.
as §2

C57BL/6J mice = test: Murine lung ischemia-reperfusion injury, edema by wet to dry weight ratio (W/D), C57BL/6J mice; type: in vivo, mouse; conditions: BL6 mice; 10 μg over 30 minutes starting 60 min prior to left hilar clamping for 1 hour; FIGS. 7A and 7B
Procedure: as §1
A further study was performed to compare the effects of pre-treatment with a TLR4 inhibitor. […]

Compound: lipopolysaccharide [LPS]
- increase in luciferase activity (NF-κB activation [1]): approximately 60 fold

- NF-κB activation stimulated by TLR2 ligands [3]: reduced NF-κB activation
Compound: CCCCCCCCCCC[C@H](CC(=O)N[C@H]1[C@H](OC[C@H](NC(=O)C[C@@H](CCCCCCCCCCC)OC(=O)CCCCC)C(=O)O)O[C@H](CO)[C@@H](OP(=O)(O)O)[C@@H]1OC(=O)C[C@@H](CCCCCCCCCCC)OC(=O)CCCCC)OC(=O)CCCCC [CRX-526]
- edema (W/D) following 1 hour of ischemia-reperfusion (OuJ mice): prevented edema
- TNF stimulation of NF-κB activation (NF-κB activation [2]; HMVECs, 0.25 ng/mL TNF): no impact
- NF-κB activation in HMVECs exposed to LPS (NF-κB activation [2]; LPS 10 or 5 ng/mL, CRX-526 0.1, 1, 10, 100 μg): prevented NF-κB activation
- edema (W/D) for up to 180 min of reperfusion (C57BL/6J mice): little if any edema
